Assay [1] concerns the target T1, Free fatty acid receptor 1 (Homo sapiens, UniProt O14842). The experiment in a line: Agonist activity at GPR40 (unknown origin) expressed in HEK293 cells assessed as intracellular cAMP level incubated for 30 mins by LANCE Ultra cAMP kit based multiplate reader analysis. The class given is functional, cell-based.
Assay [2] concerns the target T1, Free fatty acid receptor 1. Description: Agonist activity at GPR40 (unknown origin) expressed in HEK293 cells assessed as intracellular inositol phosphate accumulation incubated for 30 mins by IP-one HTRF analysis. It counts as functional, cell-based. In general terms: In TR-FRET formats the signal depends on donor and acceptor labels being close together.
Assay [3] deals with Mus musculus. The experiment in a line: Hypoglycemic effect in male C57BL/6 mouse assessed as reduction in blood glucose level at 3 mg/kg, po preadministered with compound for 60 mins followed by glucose administration at 0 hrs and measured up to 90 mins by oral glucose tolerance test. It counts as functional, organism-based. The conditions noted are these: time <= 150.0 min.

Assay [4] has as its system Mus musculus. Description: Hypoglycemic effect in male C57BL/6 mouse assessed as reduction in blood glucose level at 30 mg/kg, po preadministered with compound for 60 mins followed by glucose administration at 0 hrs and measured up to 90 mins by oral glucose tolerance test. The class given is functional, organism-based. The conditions noted are these: time <= 150.0 min.

The subject of assay [5] is Mus musculus. The experiment in a line: Hypoglycemic effect in male C57BL/6 mouse assessed as reduction in blood glucose level at 10 mg/kg, po preadministered with compound for 60 mins followed by glucose administration at 0 hrs and measured up to 90 mins by oral glucose tolerance test. The class given is functional, organism-based. Particulars: time <= […] min.
Assay [6] deals with Mus musculus. The experiment in a line: Hypoglycemic effect in male po dosed C57BL/6 mouse preadministered with compound for 60 mins followed by glucose administration at 0 hrs and measured up to 90 mins by oral glucose tolerance test. The class given is functional, organism-based. The conditions noted are these: dose 3-30 mg/kg, time <= 150.0 min.
Assay [7] addresses T1, Free fatty acid receptor 1. The experiment in a line: Partial agonist activity at GPR40 (unknown origin) expressed in HEK293 cells assessed as intracellular inositol phosphate accumulation by measuring maximum efficacy incubated for 30 mins by IP-one HTRF analysis relative to control. The class given is functional, cell-based. Particulars: filed as partial agonist.

The source of these data is ChEMBL document CHEMBL6182865, “Discovery of potent free fatty acid receptor 1 full agonists with a novel scaffold bearing conjugated double bond linker” (Bioorg Med Chem, 2025).

Activity calls are given as the source filed them. The calls are words filed in the database; no cut-off is given here.

T1 sequence (O14842 whole entry): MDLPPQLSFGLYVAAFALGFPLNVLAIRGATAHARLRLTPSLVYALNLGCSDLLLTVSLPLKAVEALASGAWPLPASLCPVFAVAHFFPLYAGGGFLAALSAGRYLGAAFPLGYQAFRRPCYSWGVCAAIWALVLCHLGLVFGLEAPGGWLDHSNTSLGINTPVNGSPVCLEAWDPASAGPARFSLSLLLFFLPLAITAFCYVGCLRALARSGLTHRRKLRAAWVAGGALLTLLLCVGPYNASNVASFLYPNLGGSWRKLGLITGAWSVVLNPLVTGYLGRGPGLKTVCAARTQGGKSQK

As for `COc1ccc(OCCCC(C)C)c(/C=C(C)/C=C/COc2cccc(C(CC(=O)O)C3CC3)c2)c1` (stereo not drawn), the 50% effective concentration (EC50) in assay [1] came to 6870 nM; in assay [2] it was 134 nM.
On to `COc1ccc(OCCC(C)(C)C)c(/C=C(C)/C=C/COc2cccc([C@H](C3CC3)[C@](C)(F)C(=O)O)c2)c1`, for which the EC50 is over 10000 nM in assay [1] and 1050 nM in assay [2].
On to `CCCOc1ccc(OC)cc1/C=C(C)/C=C/COc1cccc(C(CC(=O)O)C2CC2)c1` (stereo not drawn), for which the values for the concentration giving a half-maximal response (EC50) in assay [1] and in assay [2] were over 10000 nM and 364 nM, respectively.
As for `COc1ccc(C(=O)N(CC(C)(C)C)c2cccc(C)n2)c(N2CCC(COc3cc([C@@H](CC(=O)O)C4CC4)ccn3)CC2)c1`, the EC50 in assay [1] was determined as 87.9 nM; in assay [2], 1.11 nM. Besides, in assay [3], the result was Active.
Regarding `COc1ccc(F)c(CCCCCCOc2cccc(C(CC(=O)O)C3CC3)c2)c1` (stereo not drawn), the EC50 in assay [1] and in assay [2] was over 10000 nM throughout.
As to `COc1ccc(OCc2ccccc2)c(/C=C(C)/C=C/COc2cccc(C(CC(=O)O)C3CC3)c2)c1` (stereo not drawn), the half-maximal effective concentration (EC50) in assay [1] is over 10000 nM; in assay [2], 204 nM.
Taken in the same sequence, the figures for `COc1ccc(F)c(/C=C/C=C/COc2cccc(C(CC(=O)O)C3CC3)c2)c1` (stereo not drawn) were over 10000 nM and 1770 nM.
For the compound `COc1ccc(OCCC(C)(C)C)c(/C=C(C)/C=C/COc2cccc([C@H](C3CC3)[C@@](C)(F)C(=O)O)c2)c1`, the Activity result in assay [4] was “Active; Compound Showed Better Effect Compared With Standard Drug(Sco-267)”; in assay [6] it was “Dose-dependent-effect”. Further, the EC50 in assay [1] was found to be 261 nM; in assay [2], 3.23 nM. Moreover, the result in assay [5] was Active.
For the compound `COc1cc(/C=C(C)/C=C/COc2cccc(C(CC(=O)O)C3CC3)c2)cc(OCCC(C)(C)C)c1` (stereo not drawn), the EC50 in assay [1] is over 10000 nM; in assay [2], 943 nM.
Consider `COc1ccc(OC)c(/C=C(C)/C=C/COc2cccc(C(CC(=O)O)C3CC3)c2)c1` (stereo not drawn), for which the concentration giving a half-maximal response (EC50) in assay [1] is over 10000 nM; in assay [2] it was 894 nM.
Take `Cc1cc(OCCCS(C)(=O)=O)cc(C)c1-c1cccc(COc2ccc3c(c2)OC[C@H]3CC(=O)O)c1`: in assay [7], the Emax came out at 77.8%.
Regarding `COc1ccc(F)c(CCCCOc2cccc(C(CC(=O)O)C3CC3)c2)c1` (stereo not drawn), the figures for the EC50 in assay [1] and in assay [2] were over 10000 nM and 6700 nM, respectively.
`COc1ccc(F)c(CCCOc2cccc(C(CC(=O)O)C3CC3)c2)c1` (stereo not drawn): the EC50 in assay [1] and in assay [2] was over 10000 nM each time.
`COc1cc(/C=C(C)/C=C/COc2cccc(C(CC(=O)O)C3CC3)c2)cc(OCc2ccc(Cl)cc2F)c1` (stereo not drawn): the 50% effective concentration (EC50) in assay [1] was over 10000 nM; in assay [2], 1360 nM.
Turning to `COc1ccc(OCC2CC2)c(/C=C(C)/C=C/COc2cccc(C(CC(=O)O)C3CC3)c2)c1` (stereo not drawn), the concentration for a half-maximal effect (EC50) in assay [1] was over 10000 nM; in assay [2] it was 367 nM.

Broadly, the EC50 is the concentration at which the effect is half-maximal. One may read the Emax as the maximal effect, on the per cent scale that the assay sets.
